According to patent US20070123514A1, “Methods of modulating neurotrophin-mediated activity” (PainCeptor Pharma Corporation, priority 2005, published 2007):
Entries after “also recorded” stand apart in the source; their conditions may differ.

What was measured:
[1] = test system: Male Sprague-Dawley rats; test: Seltzer or Partial Nerve Ligation (PNL) model of neuropathic pain, mechanical allodynia; type: in vivo, rat; conditions: 25 mg/kg i.p., 90 min post-treatment
Source text: The Partial Nerve Ligation (PNL) model (Seltzer et al., Pain 1990; 43:205) was used to induce chronic neuropathic pain. Male Sprague-Dawley rats were anesthetized with isoflurane, and injury to the sciatic nerve was achieved by tying a tight ligature around ⅓ to ½ of the sciatic nerve just proximal to the nerve's trifurcation in the mid-thigh. Animals develop thermal and mechanical hyperalgesia and allodynia, as well as a long-lasting spontaneous pain or dysesthesia after the nerve injury.
Mechanical allodynia testing: Pre- and post-injury baselines as well as post-treatment values (vehicle or compound-treated animals) for mechanical allodynia were evaluated using Von Frey filaments (Stoelting, Wood Dale, Ill., USA) with varying stiffness. […] The mean and standard error of the mean (SEM) were determined for each paw in each treatment group (ipsilateral/injured paw and contralateral/non-injured paw). […] Effects of compounds were evaluated two weeks after the injury. Compound or vehicle was administered (i.p. or s.c.) and effects on mechanical allodynia were measured at different time points after dosing (e.g., 30, 60 and 90 min.).
Data analysis: Statistical analyses were conducted using Prism™ 4.01 (GraphPad, San Diego, Calif., USA). Mechanical hypersensitivity of the injured paw was determined by comparing contralateral to ipsilateral paw values within the vehicle group at each time point. […]

[2] = test system: Male Sprague-Dawley rats; test: Formalin model of acute tonic pain; type: in vivo, rat
Method: Male Sprague-Dawley rats were given a subcutaneous injection of 50 μl of 2.5% formalin into the plantar surface of one hindpaw using a 27 gauge syringe needle, and nociceptive responses were measured for the next 60 min. Compound or vehicle was administered (ip. or s.c.) 15-45 minutes prior to the formalin injection. A nociceptive score was determined for each 5 min block by measuring the amount of time spent in each of four behavioral categories: 0, the injected hindpaw is indistinguishable from that of the contralateral paw; 1, the injected paw has little or no weight placed on it; 2, the injected paw is elevated and is not in contact with any surface; 3, the injected paw is licked, bitten, or shaken. A weighted nociceptive score, ranging from 0 to 3 was calculated by multiplying the time spent in each category by the category weight, summing these products, and dividing by the total time for each 5 min block of time (Coderre et al., Pain 1993; 54: 43). On the basis of the resulting response patterns, 2 phases of nociceptive behaviour were identified and scored: first phase (P1; 0-5 min) and second phase (P2; 11-40 min).
(§1) Statistical analysis was performed using Prism™ 4.01 software package (GraphPad, San Diego, Calif., USA). The difference in response levels between treatment groups and control vehicle group was analyzed using an ANOVA followed by Bonferroni's method for post-hoc pair-wise comparisons. A p value <0.05 was considered to be significant.
Animals were treated with vehicle (VEH) or Compound 5 (50 mg/kg i.p.; CMP) 10-20 minutes before the intraplantar injection of 2.5% formalin, as described above.

[3] = test system: Mice; test: Writhing test (acetic acid abdominal contraction test); type: in vivo, mouse
Method: The acetic acid abdominal contraction test (Martinez et al., Pain 1999; 81: 179) was used to determine the efficacy of different compounds in a model of acute visceral chemical nociception. […] Compound or vehicle was administered (i.p. or s.c.) 15-45 minutes prior to the acetic acid injection. Each episode of writhing is characterized by a lengthwise stretching of the torso with a concomitant arching of the back.
as §1, with “significant” for “significant.”
Animals were treated with vehicle (VEH) or Compound 5 (100 mg/kg i.p.; CMP) 10-20 minutes before the intraperitoneal injection of acetic acid, as described above.

[4] = test system: NGF-induced neurite outgrowth, PC12 cells; test: NGF-induced neurite outgrowth of PC12 cells; type: cell-based, rat; conditions: 25 μM compound, 5 ng/ml NGF, mean±SEM, n=8; no inhibition=100%, maximal inhibition=0%
Method: This assay was run as a further functional marker of NGF antagonism and takes advantage of the differentiation of PC12 cells (neurite outgrowth) induced by NGF. Cultures of PC12 cells were grown on Terasaki plates pre-coated with poly-D-lysine. Cells were exposed to NGF (1-50 (preferably 5) ng/ml) to induce neurite outgrowth as described elsewhere [L A Greene & A S Tischler, Establishment of a noradrenergic clonal line of rat adrenal pheochromocytoma cells which respond to nerve growth factor, Proc Natl Acad Sci USA. 1976 July; 73(7): 2424-2428]. In addition to NGF, cells were exposed to varying concentration of the compounds or vehicle. Following 4 days of exposure to NGF in the presence or absence of compound, neurite outgrowth was quantified. A neurite was scored if its caliber from origin to terminal was approximately the same and the length was equal to or greater than 1.5 the cell body diameter. The number of neurite bearing cells per total number of viable cells was calculated for each condition; the number of cells with neurites in the presence of NGF (without compound exposure) was considered to represent maximal (100%) outgrowth, to which the inhibitory effect of compounds of the invention on NGF-induced outgrowth was compared.

O=C(O)c1ccc(Cl)c(N2C(=O)c3cccc4cc([N+](=O)[O-])cc(c34)C2=O)c1 [Compound 5, 4-Chloro-3-(5-nitro-1,3-dioxo-1H,3H-benzo[de]isoquinolin-2-yl)-benzoic acid]
antinociceptive effect / reversal of mechanical allodynia in partial nerve ligation model ([1]; result in words, 25 mg/kg): significant reversal of the mechanical allodynia; also recorded: antinociceptive effects
mechanical allodynia, Von Frey response threshold of injured paw ([1]; vehicle 2.17±0.19 g, n=7): 5.14 ± 0.36 g
formalin-induced spontaneous responses, Phase I ([2]; 50 mg/kg i.p. 10-20 min before 2.5% formalin, vehicle 148±9, n=8): 59±15
formalin-induced spontaneous responses, Phase II ([2]; 50 mg/kg i.p. 10-20 min before 2.5% formalin, vehicle 180±6, n=8): 61±19
antinociceptive effect in the Formalin Test ([2]; 50 mg/kg i.p., result in words, p<0.001 vs vehicle, 50 mg/kg): significant antinociceptive effects
chemically-induced abdominal contractions (number in 30 minutes) ([3]; 100 mg/kg i.p. 10-20 min before acetic acid, vehicle 58±3, n=6): 14±6
antinociceptive effect in the Writhing Test ([3]; 100 mg/kg i.p., result in words, p<0.001 vs vehicle, 100 mg/kg): significant antinociceptive effects
NGF-induced neurite outgrowth, % of NGF-only control [4]: 65%±17%
